# Test results reported in ChEMBL document CHEMBL4321853, “Multitarget CFTR Modulators Endowed with Multiple Beneficial Side Effects for Cystic Fibrosis Patients: Toward a Simplified Therapeutic Approach †” (J Med Chem, 2019).
# Activity calls are given as the source filed them. The calls are words filed in the database; no cut-off is given here.
# How the values were obtained:
# Enterovirus A71 = assay: Antiviral activity against Enterovirus A71 infected in human RD cells assessed as reduction in cytopathic effect incubated for 2 to 3 days by MTS assay; format: functional, organism-based
# [1] = molecular target: Phosphatidylinositol 4-kinase beta (Homo sapiens, UniProt Q9UBF8); assay: Inhibition of recombinant human full length His6-tagged PI4KIII beta expressed in Sf9 cells incubated for 0 mins in presence of [gamma-33P ATP] by scintillation counting method
# [2] = Cytotoxicity against human RD cells assessed as reduction in cell viability incubated for 2 to 3 days by MTS assay; format: cell-based
# [3] = tested on: Cystic fibrosis transmembrane conductance regulator (Homo sapiens), P13569 [F508del]; assay: Corrector activity at CFTR F508del mutant (unknown origin) transfected in human HEK293 membrane cells assessed as increase in CFTR level at 3 uM incubated for 24 hrs by using pHTomato probe based fluorescence inverted microscopic analysis; format: cell-based
# [4] = Cytotoxicity against human RD cells infected with Human rhinovirus B14 assessed as reduction in cell viability incubated for 2 to 3 days by MTS assay; format: cell-based
# [5] = Cytotoxicity against human RD cells infected with Human rhinovirus A2 assessed as reduction in cell viability incubated for 2 to 3 days by MTS assay; format: cell-based
# rhinovirus A2 = assay: Antiviral activity against Human rhinovirus A2 infected in human RD cells assessed as reduction in cytopathic effect incubated for 2 to 3 days by MTS assay; format: functional, organism-based; conditions: Rhinovirus A
# [6] = tested on: Cystic fibrosis transmembrane conductance regulator (Homo sapiens), P13569 [F508del]; assay: Corrector activity at CFTR F508del mutant (unknown origin) transfected in human HEK293 membrane cells assessed as increase in CFTR F508del level at 10 uM incubated for 24 hrs by using pHTomato probe based fluorescence inverted microscopic analysis; format: cell-based
# [7] = Cytotoxicity against human RD cells infected with Human coxsackievirus B3 assessed as reduction in cell viability incubated for 2 to 3 days by MTS assay; format: cell-based
# rhinovirus B14 = assay: Antiviral activity against Human rhinovirus B14 infected in human RD cells assessed as reduction in cytopathic effect incubated for 2 to 3 days by MTS assay; format: functional, organism-based; conditions: Rhinovirus B
# [8] = tested on: Cystic fibrosis transmembrane conductance regulator (Homo sapiens), P13569 [F508del]; assay: Corrector activity at CFTR F508del mutant (unknown origin) transfected in human HEK293 membrane cells assessed as increase in anion permeability at 3 uM incubated for 24 hrs by using YFP probe based fluorescence inverted microscopic analysis; format: cell-based
# Coxsackievirus B3 = assay: Antiviral activity against Human coxsackievirus B3 infected in human RD cells assessed as reduction in cytopathic effect incubated for 2 to 3 days by MTS assay; format: functional, organism-based; conditions: Enterovirus B
# [9] = Toxicity in C57BL/6 mouse assessed as effect on columnar lining cell upto 180 mg/kg, sc observed after 4 and 72 hrs by hematoxylin and eosin staining based microscopy; format: organism-based; conditions: in vivo
# Albumin [10] = molecular target: T1, Albumin (Homo sapiens, UniProt P02768); assay: Binding affinity to human serum albumin assessed as maximum binding at 0.1 to 500 uM incubated for 30 mins by spectrofluorimetry; format: ADME; conditions: isolated protein, 0.5 h
# [11] = Membrane retention of compound by PAMPA assay; format: ADME
# Albumin [12] = molecular target: T1, Albumin; assay: Binding affinity to human serum albumin assessed as dissociation constant incubated for 30 mins by spectrofluorimetry; format: ADME
# [13] = Stability in human plasma assessed as half life measured upto 24 hrs by UV/LC-MS analysis; format: ADME, cell-free
# [14] = Toxicity in C57BL/6 mouse assessed as effect on distribution of goblet cells upto 180 mg/kg, sc observed after 4 and 72 hrs by hematoxylin and eosin staining based microscopy; format: organism-based; conditions: in vivo
# [15] = Toxicity in C57BL/6 mouse assessed as epithelial hyperplasia upto 180 mg/kg, sc observed after 4 and 72 hrs by hematoxylin and eosin staining based microscopy; format: organism-based; conditions: in vivo
# [16] = Toxicity in C57BL/6 mouse assessed as effect on alveolar microstructure upto 180 mg/kg, sc observed after 4 and 72 hrs by hematoxylin and eosin staining based microscopy; format: organism-based; conditions: in vivo
# [17] = Toxicity in C57BL/6 mouse assessed as hemorrhage in lung upto 180 mg/kg, sc observed after 4 and 72 hrs by hematoxylin and eosin staining based microscopy; format: organism-based; conditions: in vivo
# [18] = Toxicity in C57BL/6 mouse assessed as effect on hepatic labyrinth of hepatocytes upto 180 mg/kg, sc observed after 4 and 72 hrs by hematoxylin and eosin staining based microscopy; format: organism-based; conditions: in vivo
# [19] = Metabolic stability in human liver microsomes assessed as compound remaining at 50 uM incubated for 1 hr by UV/LC-MS analysis; format: ADME, Microsome; conditions: read-out: Stability
# [20] = Aqueous solubility of compound by LC-MS analysis; format: physicochemical; conditions: buffer
# [21] = Acute toxicity in C57BL/6 mouse assessed as effect on behavior changes upto 180 mg/kg, sc observed for 15 days; format: organism-based; conditions: in vivo, 360 h
# [22] = Selectivity index, ratio of CC50 for human RD cells to EC50 for Enterovirus A71 infected in human RD cells; format: toxicity, cell-based; conditions: read-out: Ratio CC50/EC50
# [23] = Toxicity in C57BL/6 mouse assessed as inflammation of intestinal submucosa upto 180 mg/kg, sc observed after 4 and 72 hrs by hematoxylin and eosin staining based microscopy; format: organism-based; conditions: in vivo
# [24] = Toxicity in C57BL/6 mouse assessed as alveolar/interstitial inflammatory infiltrate upto 180 mg/kg, sc observed after 4 and 72 hrs by hematoxylin and eosin staining based microscopy; format: organism-based; conditions: in vivo
# [25] = Acute toxicity in C57BL/6 mouse assessed as effect on motor coordination upto 180 mg/kg, sc observed for 15 days; format: organism-based; conditions: in vivo, 360 h
# [26] = Acute toxicity in C57BL/6 mouse assessed as body weight loss upto 180 mg/kg, sc observed for 15 days; format: organism-based; conditions: in vivo, 360 h
# [27] = Apparent permeability of compound by PAMPA assay; format: ADME
# [28] = Enterovirus A, RD, read-out: EC50
# T1 sequence (P02768 whole entry): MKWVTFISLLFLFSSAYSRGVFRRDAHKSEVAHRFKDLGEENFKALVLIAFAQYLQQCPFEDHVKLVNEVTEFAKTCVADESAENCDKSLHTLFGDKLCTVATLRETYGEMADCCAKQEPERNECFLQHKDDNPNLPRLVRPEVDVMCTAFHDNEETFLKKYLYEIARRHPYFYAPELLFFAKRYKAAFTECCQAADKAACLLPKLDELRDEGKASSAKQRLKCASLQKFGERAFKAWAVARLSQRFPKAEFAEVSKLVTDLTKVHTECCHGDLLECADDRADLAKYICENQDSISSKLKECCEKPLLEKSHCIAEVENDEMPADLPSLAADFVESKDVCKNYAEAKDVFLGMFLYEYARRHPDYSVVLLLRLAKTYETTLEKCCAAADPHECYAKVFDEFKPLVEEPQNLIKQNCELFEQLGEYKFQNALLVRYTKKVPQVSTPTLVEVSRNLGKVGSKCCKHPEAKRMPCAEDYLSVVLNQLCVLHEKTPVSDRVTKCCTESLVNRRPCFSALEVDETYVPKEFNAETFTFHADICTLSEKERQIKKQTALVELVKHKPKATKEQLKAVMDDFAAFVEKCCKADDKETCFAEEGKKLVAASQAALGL
# Cystic fibrosis transmembrane conductance regulator (Homo sapiens), P13569 [F508del], sequence (P13569 as listed by the source): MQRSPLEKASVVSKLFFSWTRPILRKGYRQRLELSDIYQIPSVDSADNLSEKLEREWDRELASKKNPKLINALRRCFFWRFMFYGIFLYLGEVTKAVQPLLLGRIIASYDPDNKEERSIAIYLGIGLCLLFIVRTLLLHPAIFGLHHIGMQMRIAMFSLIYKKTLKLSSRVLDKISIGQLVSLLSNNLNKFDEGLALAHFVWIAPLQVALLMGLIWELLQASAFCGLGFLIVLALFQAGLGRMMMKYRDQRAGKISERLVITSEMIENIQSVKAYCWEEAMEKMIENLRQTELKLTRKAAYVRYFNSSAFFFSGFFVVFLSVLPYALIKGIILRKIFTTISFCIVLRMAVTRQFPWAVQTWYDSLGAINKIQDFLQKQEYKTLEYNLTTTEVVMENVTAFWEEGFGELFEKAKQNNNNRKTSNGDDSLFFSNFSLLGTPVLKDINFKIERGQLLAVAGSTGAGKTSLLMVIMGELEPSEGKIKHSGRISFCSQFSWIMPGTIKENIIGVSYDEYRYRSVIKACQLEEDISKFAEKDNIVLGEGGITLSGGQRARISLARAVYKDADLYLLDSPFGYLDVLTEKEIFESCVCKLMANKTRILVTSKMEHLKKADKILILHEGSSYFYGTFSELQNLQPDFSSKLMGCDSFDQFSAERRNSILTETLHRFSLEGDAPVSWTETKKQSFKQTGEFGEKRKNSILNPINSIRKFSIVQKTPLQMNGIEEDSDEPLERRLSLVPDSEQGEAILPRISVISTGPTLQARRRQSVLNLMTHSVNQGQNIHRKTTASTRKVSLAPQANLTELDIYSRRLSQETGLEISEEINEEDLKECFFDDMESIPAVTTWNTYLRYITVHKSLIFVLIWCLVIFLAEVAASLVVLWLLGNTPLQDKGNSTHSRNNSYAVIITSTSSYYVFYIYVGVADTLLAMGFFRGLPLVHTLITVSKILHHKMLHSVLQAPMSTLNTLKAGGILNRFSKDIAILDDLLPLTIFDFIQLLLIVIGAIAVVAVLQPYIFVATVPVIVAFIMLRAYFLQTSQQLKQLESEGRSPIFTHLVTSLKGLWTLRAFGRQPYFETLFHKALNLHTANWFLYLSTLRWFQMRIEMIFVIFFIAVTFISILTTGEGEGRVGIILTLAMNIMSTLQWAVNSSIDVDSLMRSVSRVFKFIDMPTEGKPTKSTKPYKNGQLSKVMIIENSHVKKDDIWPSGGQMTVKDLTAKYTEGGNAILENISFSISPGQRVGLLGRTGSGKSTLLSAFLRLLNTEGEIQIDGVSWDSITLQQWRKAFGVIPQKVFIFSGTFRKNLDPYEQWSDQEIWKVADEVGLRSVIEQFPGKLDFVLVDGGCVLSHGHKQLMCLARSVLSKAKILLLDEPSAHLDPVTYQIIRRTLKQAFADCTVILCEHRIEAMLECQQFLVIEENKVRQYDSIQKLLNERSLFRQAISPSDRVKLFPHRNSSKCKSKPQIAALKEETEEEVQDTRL
# Phosphatidylinositol 4-kinase beta, sequence (Q9UBF8 whole entry): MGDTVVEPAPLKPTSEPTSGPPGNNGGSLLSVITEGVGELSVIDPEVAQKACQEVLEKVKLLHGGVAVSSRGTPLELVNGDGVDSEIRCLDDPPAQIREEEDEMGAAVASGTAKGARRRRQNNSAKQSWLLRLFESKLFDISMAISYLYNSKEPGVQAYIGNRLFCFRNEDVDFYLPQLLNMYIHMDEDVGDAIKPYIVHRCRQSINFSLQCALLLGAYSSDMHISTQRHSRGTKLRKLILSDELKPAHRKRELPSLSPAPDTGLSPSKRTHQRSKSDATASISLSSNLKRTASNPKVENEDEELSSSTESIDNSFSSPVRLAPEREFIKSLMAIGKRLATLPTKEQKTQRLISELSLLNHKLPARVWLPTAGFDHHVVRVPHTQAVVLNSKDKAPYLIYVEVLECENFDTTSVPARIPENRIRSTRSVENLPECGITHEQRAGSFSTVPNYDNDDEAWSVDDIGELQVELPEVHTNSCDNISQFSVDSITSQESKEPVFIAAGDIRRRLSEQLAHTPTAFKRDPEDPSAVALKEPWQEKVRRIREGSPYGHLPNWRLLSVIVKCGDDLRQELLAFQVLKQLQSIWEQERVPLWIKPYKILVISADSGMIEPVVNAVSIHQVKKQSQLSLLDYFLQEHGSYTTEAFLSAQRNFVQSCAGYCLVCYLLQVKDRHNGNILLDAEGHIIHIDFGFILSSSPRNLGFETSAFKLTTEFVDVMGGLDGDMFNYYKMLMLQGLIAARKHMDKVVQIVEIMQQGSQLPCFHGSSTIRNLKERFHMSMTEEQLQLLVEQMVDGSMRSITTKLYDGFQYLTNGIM
smiles,measurement,setting,value
C=CS(=O)(=O)Nc1nc(-c2sc(NC(C)=O)nc2C)cs1,EC50,Enterovirus A71; [28],> 290 µM
same,IC50,[1],Not Active
Cc1nc(NC(=O)C(C)(C)C)sc1-c1csc(NCCC(=O)O)n1,CC50,[2],> 271 µM
same,EC50,Enterovirus A71; [28],6.48 µM
CC(=O)Nc1nc(C)c(-c2csc(NCCO)n2)s1,CC50,[2],333 µM
same,EC50,Enterovirus A71; [28],12.6 µM
CC(=O)c1cccc(Nc2nc(-c3sc(NC(=O)c4ccccc4)nc3C)cs2)c1,Activity,[3],Active
Cc1nc(NC(=O)C(C)(C)C)sc1-c1csc(Nc2cccc(C(=O)O)c2)n1,CC50,[4],36.3 µM
same,CC50,[2],32.1 µM
same,CC50,[5],36.3 µM
same,EC50,rhinovirus A2,9.7 µM
same,Activity,[3],Active
same,EC50,Enterovirus A71; [28],0.42 µM
same,Activity,[6],Active
same,CC50,[7],111 µM
same,EC50,rhinovirus B14,15.3 µM
same,Activity,[8],Active
same,EC50,Coxsackievirus B3,17 µM
CC(=O)Nc1nc(C)c(-c2csc(N(CCO)C3CCCCC3)n2)s1,CC50,[4],4.51 µM
same,CC50,[2],16.4 µM
same,CC50,[5],> 4.51 µM
same,EC50,rhinovirus A2,> 263 µM
same,EC50,Enterovirus A71; [28],1.1 µM
same,CC50,[7],20.8 µM
same,EC50,rhinovirus B14,6.24 µM
same,EC50,Coxsackievirus B3,16.1 µM
CC(=O)Nc1nc(C)c(-c2csc(NC(=O)/C=C/C(C)C)n2)s1,CC50,[2],172 µM
same,EC50,Enterovirus A71; [28],107 µM
Cc1nc(NC(=O)C(C)(C)C)sc1-c1csc(NCC(=O)O)n1,CC50,[2],> 282 µM
same,EC50,Enterovirus A71; [28],5.31 µM
Cc1nc(NC(=O)OC(C)(C)C)sc1-c1csc(NCCO)n1,CC50,[2],> 421 µM
same,EC50,Enterovirus A71; [28],11.4 µM
CC(=O)Nc1nc(C)c(-c2csc(NC3CCCCC3)n2)s1,CC50,[2],25.5 µM
same,EC50,Enterovirus A71; [28],1.1 µM
Cc1nc(NC(=O)c2ccccc2)sc1-c1csc(NCCO)n1,EC50,Enterovirus A71,Not Active
CC(=O)c1cccc(N(CCO)c2nc(-c3sc(NC(=O)C(C)(C)C)nc3C)cs2)c1,Activity,[9],Non-Toxic
same,CC50,[4],16.8 µM
same,Bmax,Albumin [10],81.73
same,R%,[11],< 0.1%
same,CC50,[2],28.9 µM
same,Kd,Albumin [12],18.5 µM
same,half-life,[13],24.2 days
same,Activity,[14],Non-Toxic
same,Activity,[15],Non-Toxic
same,Activity,[16],Non-Toxic
same,Activity,[17],Non-Toxic
same,Activity,[18],Non-Toxic
same,"remaining at 1 h, 50 µM",[19],98%
same,CC50,[5],16.8 µM
same,solubility,[20]; read-out: solubility,0.1 µM
same,EC50,rhinovirus A2,6.1 µM
same,Activity,[21],Non-Toxic
same,selectivity ratio,[22],> 67.2
same,Activity,[3],Active
same,EC90,"Enterovirus A71; Enterovirus A, RD",5.78 µM
same,EC50,Enterovirus A71; [28],< 0.43 µM
same,Activity,[23],Non-Toxic
same,Activity,[6],Active
same,Activity,[24],Non-Toxic
same,CC50,[7],> 218 µM
same,EC50,rhinovirus B14,> 9.1 µM
same,Activity,[25],Non-Toxic
same,Activity,[26],Non-Toxic
same,Activity,[8],Active
same,EC50,Coxsackievirus B3,6.6 µM
CC(=O)Nc1nc(C)c(-c2csc(N(C)C3CCCCC3)n2)s1,CC50,[2],19.4 µM
same,EC50,Enterovirus A71; [28],0.88 µM
Cc1nc(NC(=O)C(C)(C)C)sc1-c1csc(NCCCC(=O)O)n1,CC50,[2],261 µM
same,EC50,Enterovirus A71; [28],7.27 µM
CC(=O)Nc1nc(C)c(-c2csc(NC(=O)CBr)n2)s1,EC50,Enterovirus A71,Not Active
Cc1nc(NC(=O)C(C)(C)C)sc1-c1csc(NCCO)n1,CC50,[4],41.2 µM
same,CC50,[2],361 µM
same,CC50,[5],41.2 µM
same,EC50,rhinovirus A2,5.4 µM
same,Activity,[3],Active
same,EC50,Enterovirus A71; [28],1.83 µM
same,Activity,[6],Active
same,CC50,[7],> 293 µM
same,EC50,rhinovirus B14,3.8 µM
same,Activity,[8],inactive
same,EC50,Coxsackievirus B3,2.3 µM
C=CC(=O)Nc1nc(-c2sc(NC(C)=O)nc2C)cs1,CC50,[2],6.01 µM
same,EC50,Enterovirus A71; [28],1.89 µM
CC(=O)c1cccc(Nc2nc(-c3sc(NC(=O)OC(C)(C)C)nc3C)cs2)c1,Activity,[3],Active
CCC(=O)Nc1nc(-c2sc(NC(C)=O)nc2C)cs1,EC50,Enterovirus A71,Not Active
Cc1nc(NC(=O)C(C)(C)C)sc1-c1csc(N(CCO)C2CCCCC2)n1,CC50,[2],4.46 µM
same,Activity,[3],Active
same,EC50,Enterovirus A71; [28],4.96 µM
same,Activity,[6],Active
same,Activity,[8],Active
COc1ccc(Cl)cc1Nc1nc(-c2sc(NC(=O)c3ccccc3)nc2C)cs1,Bmax,Albumin [10],88.82
same,R%,[11],37.9%
same,Kd,Albumin [12],11.7 µM
same,half-life,[13],3.61 days
same,"remaining at 1 h, 50 µM",[19],98%
same,solubility,[20],0.02 µM
same,Papp,[27],8.1 ×10⁻⁶ cm/s
CC(=O)Nc1nc(C)c(-c2csc(N(CCO)c3cccc(C(C)=O)c3)n2)s1,EC50,Enterovirus A71,Not Active
CC(=O)Nc1nc(C)c(-c2csc(NC3CCC(C)CC3)n2)s1 (stereo not given),CC50,[2],10.9 µM
same,EC50,Enterovirus A71; [28],0.34 µM
